Measurements: US9403830B2, “Inhibitors of leukotriene production” (Boehringer Ingelheim International GmbH, priority 2012, dated 2016)
pIC50: −log10 of the molar value.

What was measured:
[1] = test system: LTB4 synthesis in human whole blood; assay: human whole blood (HWB) assay, inhibition of LTB4 production; type: cell-based; settings: heparinized human whole blood, calcimycin 20 μM stimulation, plasma LTB4
Outline: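 Plasma LTB4, quantified by HTRF immunoassay, is the read-out after calcimycin challenge (20 μM final, 30 min, 37 °C) of heparinized whole blood that had been pretreated with compound for 15 min at 37 °C; values given as IC50.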

[2] = target: T1, human LTA4 hydrolase (Homo sapiens, UniProt P09960); assay: LTA4H Enzyme assay (peptidase, Arg-AMC cleavage); type: biochemical; settings: LTA4H enzyme 1 nM, Arg-AMC substrate 50 μM, room temperature 1 h, fluorescence 380/460 nm
T1 sequence (P09960 1-611): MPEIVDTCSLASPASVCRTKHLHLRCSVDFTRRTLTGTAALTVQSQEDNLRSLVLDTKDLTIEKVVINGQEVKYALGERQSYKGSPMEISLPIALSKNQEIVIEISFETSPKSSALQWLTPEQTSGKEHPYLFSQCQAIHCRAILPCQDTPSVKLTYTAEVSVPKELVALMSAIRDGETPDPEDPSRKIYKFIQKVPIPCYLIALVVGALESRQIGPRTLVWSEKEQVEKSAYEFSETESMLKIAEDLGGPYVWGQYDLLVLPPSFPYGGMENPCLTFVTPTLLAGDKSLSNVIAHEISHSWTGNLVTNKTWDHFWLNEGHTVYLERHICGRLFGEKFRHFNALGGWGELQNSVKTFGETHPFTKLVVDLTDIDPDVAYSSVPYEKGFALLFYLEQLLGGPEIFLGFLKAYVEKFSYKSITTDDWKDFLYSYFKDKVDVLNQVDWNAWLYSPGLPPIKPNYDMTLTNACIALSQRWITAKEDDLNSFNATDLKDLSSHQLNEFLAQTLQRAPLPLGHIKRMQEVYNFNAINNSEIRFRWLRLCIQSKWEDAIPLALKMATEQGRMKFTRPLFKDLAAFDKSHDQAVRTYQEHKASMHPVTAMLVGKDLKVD
Outline: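 Human LTA4H (1 nM final) incubated with compound and Arg-AMC (50 μM final) in 50 mM Tris-HCl pH 7.5, 100 mM KCl, 0.5% BSA, 1 h at room temperature. Product read as AMC fluorescence (ex 380/em 460 nm); IC50 reported.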

SMILES	pIC50 [1]	pIC50 [2]
CN(C)CCn1cc2cc(Oc3ccc(-c4ccn[nH]4)cc3)ccc2n1 [Example 158, Dimethyl-(2-{5-[4-(2H-pyrazol-3-yl)-phenoxy]-indazol-2-yl}-ethyl)-amine]	6.96	9.55
CN(Cc1nc2cc(Oc3ccc(-c4ccn[nH]4)cc3)ccc2[nH]1)CC1CCOCC1 [Example 159, Methyl-{5-[4-(2H-pyrazol-3-yl)-phenoxy]-1H-benzoimidazol-2-ylmethyl}-(tetrahydro-pyran-4-ylmethyl)-amine]	6.96	9.72
CC[C@H](C)NCc1nc2cc(Oc3ccc(-c4ccn[nH]4)cc3)ccc2[nH]1 [Example 161, ((S)-sec-Butyl)-{5-[4-(2H-pyrazol-3-yl)-phenoxy]-1H-benzoimidazol-2-ylmethyl}-amine]	6.92	9.85
CN(C)CCn1ncc2cc(Oc3ccc(-c4ccn[nH]4)cc3)ccc21 [Example 162, Dimethyl-(2-{5-[4-(2H-pyrazol-3-yl)-phenoxy]-indazol-1-yl}-ethyl)-amine]	6.92	9.21
c1cc(-c2ccc(Oc3ccc4[nH]c(CN5CCCCCC5)nc4c3)cc2)[nH]n1 [Example 163, 2-Azepan-1-ylmethyl-5-[4-(2H-pyrazol-3-yl)-phenoxy]-1H-benzoimidazole]	6.92	10.19
CN(Cc1nc2cc(Oc3ccc(-c4ccn[nH]4)cc3)ccc2[nH]1)C1CCCC1 [Example 164, Cyclopentyl-methyl-{5-[4-(2H-pyrazol-3-yl)-phenoxy]-1H-benzoimidazol-2-ylmethyl}-amine]	6.92	9.85
C[C@@H]1CCCCN1Cc1nc2cc(Oc3ccc(-c4ccn[nH]4)cc3)ccc2[nH]1 [Example 165, 2-((R)-2-Methyl-piperidin-1-ylmethyl)-5-[4-(2H-pyrazol-3-yl)-phenoxy]-1H-benzoimidazole]	6.92	10.12
COCC1CCN(Cc2nc3cc(Oc4ccc(-c5ccn[nH]5)cc4)ccc3[nH]2)C1 (stereo not drawn) [Example 166, 2-(3-Methoxymethyl-pyrrolidin-1-ylmethyl)-5-[4-(2H-pyrazol-3-yl)-phenoxy]-1H-benzoimidazole]	6.92	9.68
COC[C@H]1CCCN1Cc1nc2cc(Oc3ccc(-c4ccn[nH]4)cc3)ccc2[nH]1 [Example 167, 2-((R)-2-Methoxymethyl-pyrrolidin-1-ylmethyl)-5-[4-(2H-pyrazol-3-yl)-phenoxy]-1H-benzoimidazole]	6.92	9.85
COCC1CCCCN1Cc1nc2cc(Oc3ccc(-c4ccn[nH]4)cc3)ccc2[nH]1 (stereo not drawn) [Example 168, 2-(2-Methoxymethyl-piperidin-1-ylmethyl)-5-[4-(2H-pyrazol-3-yl)-phenoxy]-1H-benzoimidazole]	6.92	9.89
CN(C)C(=O)CC1CCN(CC2Cc3ccc(Oc4ccc(-c5ccn[nH]5)cc4)cc3O2)CC1 (stereo not drawn) [Example 169, N,N-Dimethyl-2-(1-{6-[4-(2H-pyrazol-3-yl)-phenoxy]-2,3-dihydro-benzofuran-2-ylmethyl}-piperidin-4-yl)-acetamide]	6.92	9.60
COCC(=O)NC1CCN(CC2Cc3ccc(Oc4ccc(-c5ccn[nH]5)cc4)cc3O2)CC1 (stereo not drawn) [Example 170, 2-Methoxy-N-(1-{6-[4-(2H-pyrazol-3-yl)-phenoxy]-2,3-dihydro-benzofuran-2-ylmethyl}-piperidin-4-yl)-acetamide]	6.92	9.46
C[C@H]1CCCCN1Cc1nc2cc(Oc3ccc(-c4ccn[nH]4)cc3)ccc2[nH]1 [Example 171, 2-((S)-2-Methyl-piperidin-1-ylmethyl)-5-[4-(2H-pyrazol-3-yl)-phenoxy]-1H-benzoimidazole]	6.89	9.96
COC1CCCN(Cc2nc3cc(Oc4ccc(-c5ccn[nH]5)cc4)ccc3[nH]2)C1 (stereo not drawn) [Example 172, 2-(3-Methoxy-piperidin-1-ylmethyl)-5-[4-(2H-pyrazol-3-yl)-phenoxy]-1H-benzoimidazole]	6.89	10.15
COC[C@@H]1CCCN1Cc1nc2cc(Oc3ccc(-c4ccn[nH]4)cc3)ccc2[nH]1 [Example 173, 2-((S)-2-Methoxymethyl-pyrrolidin-1-ylmethyl)-5-[4-(2H-pyrazol-3-yl)-phenoxy]-1H-benzoimidazole]	6.89	9.80
CC1(O)CN(Cc2ccc3cc(Oc4ccc(-c5ccn[nH]5)cn4)ccc3n2)C1 [Example 174, 3-Methyl-1-{6-[5-(2H-pyrazol-3-yl)-pyridin-2-yloxy]-quinolin-2-ylmethyl}-azetidin-3-ol]	6.85	9.19
c1cc(-c2ccc(Oc3ccc4[nH]c(CN5CCCOCC5)nc4c3)cc2)[nH]n1 [Example 175, 2-[1,4]Oxazepan-4-ylmethyl-5-[4-(2H-pyrazol-3-yl)-phenoxy]-1H-benzoimidazole]	6.85	9.77
O=S1(=O)CCN(CCn2cc3cc(Oc4ccc(-c5ccn[nH]5)cc4)ccc3n2)CC1 [Example 176, 2-[2-(1,1-Dioxo-1-λ-6-thiomorpholin-4-yl)-ethyl]-5-[4-(2H-pyrazol-3-yl)-phenoxy]-2H-indazole]	6.85	9.49
c1cc(-c2ccc(Oc3ccc4nc(CN5C[C@@H]6C[C@H]5CO6)ccc4c3)nc2)[nH]n1 [Example 178, 2-[(1S,4S)-1-(2-Oxa-5-aza-bicyclo[2.2.1]hept-5-yl)methyl]-6-[5-(2H-pyrazol-3-yl)-pyridin-2-yloxy]-quinoline]	6.82	9.13
CN(Cc1nc2cc(Oc3ccc(-c4ccn[nH]4)cc3)ccc2[nH]1)C1CC1 [Example 179, Cyclopropyl-methyl-{5-[4-(2H-pyrazol-3-yl)-phenoxy]-1H-benzoimidazol-2-ylmethyl}-amine]	6.82	9.70
CC[C@@H](C)NCc1nc2cc(Oc3ccc(-c4ccn[nH]4)cc3)ccc2[nH]1 [Example 180, ((R)-sec-Butyl)-{5-[4-(2H-pyrazol-3-yl)-phenoxy]-1H-benzoimidazol-2-ylmethyl}-amine]	6.82	9.89
c1cc(-c2ccc(Oc3ccc4[nH]c(CNC5CCCOC5)nc4c3)cc2)[nH]n1 (stereo not drawn) [Example 181, {5-[4-(2H-Pyrazol-3-yl)-phenoxy]-1H-benzoimidazol-2-ylmethyl}-(tetrahydro-pyran-3-yl)-amine]	6.82	9.68
CC1(C)COCCN1Cc1nc2cc(Oc3ccc(-c4ccn[nH]4)cc3)ccc2[nH]1 [Example 182, 2-(3,3-Dimethyl-moprholin-4-ylmethyl)-5-[4-(2H-pyrazol-3-yl)-phenoxy]-1H-benzoimidazole]	6.82	10.21
COCCN(Cc1nc2cc(Oc3ccc(-c4ccn[nH]4)cc3)ccc2[nH]1)C(C)C [Example 183, Isopropyl-(2-methoxy-ethyl)-{5-[4-(2H-pyrazol-3-yl)-phenoxy]-1H-benzoimidazol-2-ylmethyl}-amine]	6.82	9.77
CCCN(CCOC)Cc1nc2cc(Oc3ccc(-c4ccn[nH]4)cc3)ccc2[nH]1 [Example 184, (2-Methoxy-ethyl)-propyl-{5-[4-(2H-pyrazol-3-yl)-phenoxy]-1H-benzoimidazol-2-ylmethyl}-amine]	6.82	9.70
c1cc(-c2ccc(Oc3ccc4c(c3)OC(CNCC3CCOCC3)C4)cc2)[nH]n1 (stereo not drawn) [Example 185, {6-[4-(2H-Pyrazol-3-yl)-phenoxy]-2,3-dihydro-benzofuran-2-ylmethyl}-(tetrahydro-pyran-4-ylmethyl)-amine]	6.82	9.35
COCCN(CCOC)Cc1nc2cc(Oc3ccc(-c4ccn[nH]4)cc3)ccc2[nH]1 [Example 186, Bis-(2-methoxy-ethyl)-{5-[4-(2H-pyrazol-3-yl)-phenoxy]-1H-benzoimidazol-2-ylmethyl}-amine]	6.82	9.64
O=C(C1CCN(CC2Cc3ccc(Oc4ccc(-c5ccn[nH]5)cc4)cc3O2)CC1)N1CCOCC1 (stereo not drawn) [Example 187, Morpholin-4-yl-(1-{6-[4-(2H-pyrazol-3-yl)-phenoxy]-2,3-dihydro-benzofuran-2-ylmethyl}-piperidin-4-yl)-methanone]	6.82	9.51
c1cc(-c2ccc(Oc3ccc4[nH]c(CNC5CCCC5)nc4c3)cc2)[nH]n1 [Example 188, Cyclopentyl-{5-[4-(2H-pyrazol-3-yl)-phenoxy]-1H-benzoimidazol-2-ylmethyl}-amine]	6.80	9.89
COC[C@H](C)NCc1nc2cc(Oc3ccc(-c4ccn[nH]4)cc3)ccc2[nH]1 [Example 189, ((S)-2-Methoxy-1-methyl-ethyl)-{5-[4-(2H-pyrazol-3-yl)-phenoxy]-1H-benzoimidazol-2-ylmethyl}-amine]	6.80	9.64
